Assays:
Assay type in all cases: in vivo
rice and other crops = assay: Comparison experiment (post-emergence, Tables 4-7), crop safety; conditions: dose of 125, 60, 30, 15 g/ha
Description: (§1) The above growth control rates are fresh weight control rates.
(§2) Experiment on weeding effect in post-emergence stage: monocotyledonous and dicotyledonous weed seeds (Descurainia sophia, Capsella bursa-pastoris, Galium aparine, Stellaria media, Lithospermum arvense, Rorippa indica, Alopecurus aequalis, Beckmannia syzigachne, Sclerochloa dura, Phleum paniculatum, Bromus japonicus, Aegilops tauschii, Phalaris arundinacea, Amaranthus retroflexus, Chenopodiaceae, Commelina communis, Sonchus arvensis, convolvulus arvensis, Cirsium setosum, Solanum nigrum, Acalypha australis, Digitaria sanguinalis, Echinochloa crusgalli, Setaria viridis, Setaria glauca, Leptochloa chinensis, Monochoria vaginalis, Sagittaria trifolia, Scirpus juncoides, Cyperus rotundus, Cyperus iria, Cyperus difformis, Fimbristylis, Portulaca oleracea, Xanthium sibiricum, Pharbitis nil) and major crop seeds (wheat, corn, rice, soybean, cotton, oilseed rape, millet, sorghum, potato, sesame, ricinus) were placed in plastic pots filled with soil, then covered with 0.5-2 cm of soil, allowed to grow in a good greenhouse environment. After 2 weeks of sowing, the test plants were treated in the 2 leaf stage. The tested compounds of the present invention were respectively dissolved in acetone, then added with Tween 80 and 1.5 liter/ha of emulsifiable concentrate of methyl oleate as synergist, diluted with a certain amount of water to obtain a solution with a certain concentration, and sprayed with a spray tower onto the plants. After the application, the plants were cultured for 15 days in the greenhouse, and then the experimental results of the weeding were counted. The doses of the used compounds were 500, 250, 125, 60, 30, 15 g/ha, and the averages were obtained by repeating for three times.
(§3) If there is no clear marker, the post-seedling test conditions are the same as above, and the experimental results are shown in Tables 4-7.

Abutilon theophrasti = assay: Weeding effect in post-emergence stage; conditions: 250 g/ha; 2 leaf stage; 15 days after application; fresh weight control rate
Outline: (§4)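 Greenhouse pot-grown weeds were sprayed at the 2-leaf stage, 2 weeks after sowing, with compound in acetone/Tween 80 plus 1.5 L/ha methyl oleate EC, at 500, 250, 125, 60, 30 or 15 g/ha. Fresh-weight growth control was scored 15 days later on a 0–5 scale, mean of three repeats.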

Echinochloa crusgali = assay: Weeding effect in post-emergence stage; conditions: 250 g/ha; 2 leaf stage; 15 days after application; fresh weight control rate
Outline: as §4

Digitaria sanguinalis = assay: Weeding effect in post-emergence stage; conditions: 250 g/ha; 2 leaf stage; 15 days after application; fresh weight control rate
Outline: as §4

Amaranthus retroflexus = assay: Weeding effect in post-emergence stage; conditions: 250 g/ha; 2 leaf stage; 15 days after application; fresh weight control rate
Outline: as §4

Setaria viridis = assay: Weeding effect in post-emergence stage; conditions: 250 g/ha; 2 leaf stage; 15 days after application; fresh weight control rate
Outline: as §4

[1] = test system: key weeds such as Digitaria sanguinalis, Leptochloa chinensis; assay: Comparison experiment (post-emergence, Tables 4-7), herbicidal activity on weeds not listed separately; conditions: for activity to key weeds such as Digitaria sanguinalis, Leptochloa chinensis compared with the corresponding racemate or S configuration: dose of 125, 60, 30, 15 g/ha
Description: as §1, §2, §3

| Compound | safety to rice and other crops compared with the corresponding racemate or S configuration (rice and other crops) | weeding effect in post-emergence stage, activity level (growth control rate), Abutilon theophrasti (Abutilon theophrasti) | weeding effect in post-emergence stage, activity level (growth control rate), Echinochloa crusgali (Echinochloa crusgali) | weeding effect in post-emergence stage, activity level (growth control rate), Digitaria sanguinalis (Digitaria sanguinalis) | weeding effect in post-emergence stage, activity level (growth control rate), Amaranthus retroflexus (Amaranthus retroflexus) | weeding effect in post-emergence stage, activity level (growth control rate), Setaria viridis (Setaria viridis) | activity to key weeds such as Digitaria sanguinalis, Leptochloa chinensis compared with the corresponding racemate or S configuration [1] | herbicidal activity and/or crop safety compared with the corresponding racemate or S configuration ([1]; dose of 120, 48, 30, 24 g/ha) | herbicidal activity and/or crop safety compared with the corresponding racemate or S configuration ([1]; doses of 125, 60, 30, 15 g/ha, X replaced by other five membered rings) | herbicidal activity and/or crop safety compared with the corresponding racemate or S configuration ([1]; no dose stated) |
| --- | --- | --- | --- | --- | --- | --- | --- | --- | --- | --- |
| CC[S@@+]([O-])c1c(C(F)(F)F)ccc(C(=O)Nc2nnc(C)o2)c1F [Compound 2] | higher safety | 5 (Level 5: growth control rate is above 85%) | 5 (Level 5: growth control rate is above 85%) | 4 (Level 4: growth control rate is greater than or equal to 60% and less than 85%) | 5 (Level 5: growth control rate is above 85%) | 4 (Level 4: growth control rate is greater than or equal to 60% and less than 85%) | better activity |  |  |  |
| CCCCC[S@@+]([O-])c1c(C(F)(F)F)ccc(C(=O)Nc2nnc(C)o2)c1F [Compound 8] | higher safety | 5 (Level 5: growth control rate is above 85%) | 5 (Level 5: growth control rate is above 85%) | 4 (Level 4: growth control rate is greater than or equal to 60% and less than 85%) | 5 (Level 5: growth control rate is above 85%) | 4 (Level 4: growth control rate is greater than or equal to 60% and less than 85%) | better activity |  |  |  |
| Cc1nnc(NC(=O)c2ccc(C(F)(F)F)c([S@+]([O-])CC3COC3)c2F)o1 [Compound 80] | higher safety |  | 5 (Level 5: growth control rate is above 85%) |  | 5 (Level 5: growth control rate is above 85%) |  | better activity |  |  |  |
| Cc1nnc(NC(=O)c2ccc(C(F)(F)F)c([S@+]([O-])Cc3cn(C)nc3C)c2F)o1 [Compound 184] | higher safety |  | 5 (Level 5: growth control rate is above 85%) |  | 5 (Level 5: growth control rate is above 85%) |  | better activity |  |  |  |
| CC[S@@+]([O-])c1c(C(F)(F)F)ccc(C(=O)N(c2nnc(C)o2)C(C)OC(=O)OC)c1F (some centres unmarked) [Compound 248] | higher safety |  | 5 (Level 5: growth control rate is above 85%) |  | 5 (Level 5: growth control rate is above 85%) |  | better activity |  |  |  |
| C=CC[S@@+]([O-])c1c(C(F)(F)F)ccc(C(=O)Nc2nnc(C)o2)c1SC [Compound 552] |  | 5 (Level 5: growth control rate is above 85%) | 5 (Level 5: growth control rate is above 85%) | 5 (Level 5: growth control rate is above 85%) | 5 (Level 5: growth control rate is above 85%) | 5 (Level 5: growth control rate is above 85%) |  | better herbicidal activity and/or crop safety |  |  |
| CSc1c(C(=O)Nc2nnc(C)o2)ccc(C(F)(F)F)c1[S@+]([O-])CC1CC1 [Compound 554] |  | 5 (Level 5: growth control rate is above 85%) | 5 (Level 5: growth control rate is above 85%) | 5 (Level 5: growth control rate is above 85%) | 5 (Level 5: growth control rate is above 85%) | 5 (Level 5: growth control rate is above 85%) |  | better herbicidal activity and/or crop safety |  |  |
| CSc1c(C(=O)Nc2nnc(C)o2)ccc(C(F)(F)F)c1[S@+]([O-])CCCF [Compound 559] |  | 5 (Level 5: growth control rate is above 85%) | 5 (Level 5: growth control rate is above 85%) | 5 (Level 5: growth control rate is above 85%) | 5 (Level 5: growth control rate is above 85%) | 5 (Level 5: growth control rate is above 85%) |  | better herbicidal activity and/or crop safety |  |  |
| CCC[S@@+]([O-])c1c(C(F)(F)F)ccc(C(=O)Nc2nnc(C)o2)c1SCC [Compound 569] |  | 5 (Level 5: growth control rate is above 85%) | 5 (Level 5: growth control rate is above 85%) | 5 (Level 5: growth control rate is above 85%) | 5 (Level 5: growth control rate is above 85%) | 5 (Level 5: growth control rate is above 85%) |  | better herbicidal activity and/or crop safety |  |  |
| CCC[S@@+]([O-])c1c(C(F)F)ccc(C(=O)Nc2nnnn2C)c1F [Compound 856] |  | 5 (Level 5: growth control rate is above 85%) | 5 (Level 5: growth control rate is above 85%) | 5 (Level 5: growth control rate is above 85%) | 5 (Level 5: growth control rate is above 85%) | 5 (Level 5: growth control rate is above 85%) |  |  | better herbicidal activity and/or crop safety |  |
| CCC[S@@+]([O-])c1c(C(F)F)ccc(C(=O)Nc2nnc(C)o2)c1OC [Compound 864] |  | 5 (Level 5: growth control rate is above 85%) | 5 (Level 5: growth control rate is above 85%) | 5 (Level 5: growth control rate is above 85%) | 5 (Level 5: growth control rate is above 85%) | 5 (Level 5: growth control rate is above 85%) |  |  |  | better herbicidal activity and/or crop safety |
| CCC[S@@+]([O-])c1c(C(F)F)ccc(C(=O)Nc2nnc(C)o2)c1SC [Compound 865] |  | 5 (Level 5: growth control rate is above 85%) | 5 (Level 5: growth control rate is above 85%) | 5 (Level 5: growth control rate is above 85%) | 5 (Level 5: growth control rate is above 85%) | 5 (Level 5: growth control rate is above 85%) |  | better herbicidal activity and/or crop safety |  |  |

Source: US12643871B2, “Aryl formamide compound containing chiral sulfur oxide or salt thereof, preparation method, herbicidal composition and use thereof” (Qingdao Kingagroot Chemical Compound Co., Ltd., priority 2019, dated 2026)
